Measured values reported in patent US20240139154A1, “Methods of Reducing Risk of Prostate Cancer Progression” (Astellas Pharma Inc., priority 2021, published 2024).
Where two headings read alike, the source gives them in different places.

Assays:
[1] = test system: low risk or intermediate risk prostate cancer; experiment: ENACT study: biopsy outcomes (negative biopsies, percentage of cancer-positive cores) at 1 and 2 years; type: in vivo, human
Text: This was followed by a one year follow up period, and a further continued follow-up period of at least one-year, until the last patient completed the 24-month visit.
(§1) Secondary endpoints were (1) Incidence of negative biopsies for cancer at 1 year and 2 years; (2) percentage of cancer-positive cores at 1 year and 2 years; (3) time to PSA progression; and (4) incidence of a secondary rise in serum PSA at 1 year and 2 years. “PSA progression” is defined as a ≥25% increase in serum PSA from baseline, a ≥25% increase above nadir, or an absolute increase of ≥2 ng/mL.
(§2) Secondary endpoint of incidence of negative biopsy for cancer was summarized using frequencies and percentages at one and two years by treatment groups. […] Analysis of time to PSA progression was performed using the same method used to analyze the primary endpoint. P-values were adjusted using the Bonferroni-Holm method to control type I error at 0.05 for selected secondary endpoints.

[2] = ENACT study: adverse events (safety set); type: in vivo, human
Text: The full analysis set (FAS) was the patients who were enrolled in the study and randomized to one or the other of the study arms. The safety set (SAF) was redefined in the Statistical Analysis Plan (SAP) to include only subjects who took the study drug. The FAS was 227 patients (113 in the active surveillance arm, 114 in the enzalutamide arm). The SAF had 112 subjects in the enzalutamide arm.
As expected, the incidence of Drug-Related Adverse Events (AEs) were reported in 92.0% (103/112) of the enzalutamide patients during the treatment period plus 30 days. Of the patients on active surveillance, 54.9% (62/113) experienced an adverse event from randomization until date completed 12 months on study plus 30 days. The most common Drug-Related AE seen in the enzalutamide group was fatigue (52.7%). Adverse events which occurred in ≥3.5% of enzalutamide patients were fatigue (55.4%), gynecomastia (36.6%), nipple pain (30.4%), breast tenderness (25.9%), and erectile dysfunction (17.9%). The only AE that occurred in ≥3.5% of the patients on active surveillance was hypertension (7.1%). […] Observed AE data were consistent with the known safety profile of enzalutamide.

[3] = test system: low risk or intermediate risk prostate cancer; conditions: for Hazard Ratio (95% CI), time to prostate cancer progression: enzalutamide/AS, Cox regression, HR<1 favors enzalutamide
[4] = ENACT study: adverse events (safety set); type: in vivo, human; conditions: During 1-year continued follow-up period, n = 112
[5] = test system: serum PSA; experiment: ENACT study: time to PSA progression and secondary rise in serum PSA; type: in vivo, human; conditions: for Hazard Ratio (95% CI), time to PSA progression: Cox regression
Method: as §1, §2

## CNC(=O)c1ccc(N2C(=S)N(c3ccc(C#N)c(C(F)(F)F)c3)C(=O)C2(C)C)cc1F [enzalutamide, Enzalutamide]
[1]; 1 year, n = 90
  Percentage of cancer-positive cores at 1 year, LS mean change from baseline ± SE: −12.97 ± 1.99%
[1]; 1 year, n = 114
  Biopsy result at 1 year: Positive, %: (46.5) %
  Biopsy result at 1 year: Unknown, %: (18.4) %
  Incidence of negative biopsy at 1 year: Negative, %: 35.1%
[1]; 2 years, n = 53
  Percentage of cancer-positive cores at 2 years, LS mean change from baseline ± SE: −6.68 ± 2.37%
[1]; 2 years, n = 100
  Biopsy result at 2 years: Positive, %: (47.0) %
  Biopsy result at 2 years: Unknown, %: (34.0) %
  Incidence of negative biopsy at 2 years: Negative, %: 19.0%
[1]; between baseline and year two
  reduction in the mean percentage of cancer-positive cores within the enzalutamide arm: 6.7%
[1]; enzalutamide vs AS, 1 year
  Percentage of cancer-positive cores at 1 year, Difference in LS means ± SE: −10.07 ± 2.40%
[1]; enzalutamide vs AS, 2 years
  Percentage of cancer-positive cores at 2 years, Difference in LS means ± SE: −5.15 ± 3.17%
[1]; enzalutamide vs AS, exact logistic regression, 1 year
  OR (95% CI), negative biopsy at 1 year: 3.5 (1.76, 6.92)
[1]; enzalutamide vs AS, exact logistic regression, 2 years
  OR (95% CI), negative biopsy at 2 years: 1.6 (0.66, 4.00)
[1]; enzalutamide vs AS, exact logistic regression, 2 years, listed as Enzalutamide
  OR (95% CI), negative biopsy at 2 years: 1.6 (0.66, 4.00)
[1]; one year
  likelihood of a negative biopsy at one year compared to the control population: at least three times more likely
[2]; During 1-year treatment period, n = 112
  AEs leading to death, %: 0.9%
[2]; human, in vivo
  most common Drug-Related AE: fatigue: 52.7%
[2]; human, in vivo, 1 year
  Drug-related AEs leading to discontinuation of study drug, %: 7.1%
  Drug-related AEs ≥ grade 3, %: 5.4%
  Drug-related AEs, %: 88.4%
  Drug-related SAEs, %: 2.7%
  TEAEs ≥ grade 3, %: 9.8%
[2]; human, in vivo, 12 months
  Adverse Event: Alopecia, %: (9.8%)
  Adverse Event: Hypertension, %: (7.1%)
  Adverse Event: Libido Decreased, %: (8.0%)
[2]; in vivo
  tolerability of enzalutamide monotherapy: well-tolerated
[3]; FAS, Kaplan-Meier, NR = not reached
  Median Progression Free Survival / median time to pathological or therapeutic prostate cancer progression: not reached
[3]; FAS, N = 114
  No. Censored (progression free survival), %: 71.9%
[3]; FAS, N = 114, 160 mg/day
  No. of Events (prostate cancer progression), %: 28.1%
[3]; compared to patients on active surveillance
  reduction in risk of prostate cancer progression: 46%
[3]; FAS
  Hazard Ratio (95% CI), time to prostate cancer progression: 0.542 (0.330, 0.892)
[3]; FAS, listed as Enzalutamide
  Hazard Ratio (95% CI), time to prostate cancer progression: 0.54 (0.33, 0.89)
[4]
  AEs leading to death, %: 1.8%
[5]; 1 year, n = 114
  Incidence of a secondary rise in serum PSA at 1 year, PSA response, %: (24.6) %
[5]; 2 years, n = 100
  Incidence of a secondary rise in serum PSA at 2 years, PSA response, %: (92.0) %
[5]; FAS, Kaplan-Meier
  Median Time to PSA Progression (95% CI): 14.82
[5]; FAS, N = 114
  No. Censored (time to PSA progression), %: 15.8%
  No. of Events (PSA progression), %: 84.2%
[5]; enzalutamide vs AS, 1 year
  OR (95% CI), secondary rise in serum PSA at 1 year: 0.1 (0.08, 0.26)
[5]; enzalutamide vs AS, 2 years
  OR (95% CI), secondary rise in serum PSA at 2 years: 1.1 (0.37, 3.53)
[5]; enzalutamide vs AS, FAS
  Hazard Ratio (95% CI), time to PSA progression: 0.714 (0.525, 0.972)
[5]; enzalutamide vs AS, FAS, listed as Enzalutamide
  Hazard Ratio (95% CI), time to PSA progression: 0.71 (0.53, 0.97)
[5]; n = 114
  Time to PSA progression, Median (95% CI): 14.8 months
[5]; observed at month 15 onwards
  PSA rebound following cessation of treatment: PSA rebound was demonstrated
[5]; versus AS
  delay of PSA progression: 6 months
